In paper PMC10931833, “Simultaneous Purification of Human Interferon Alpha-2b and Serum Albumin Using Bioprivileged Fluorinated Ionic Liquid-Based Aqueous Biphasic Systems” (International Journal of Molecular Sciences, 2024):
Like-named read-outs stand apart in the source and are kept apart here.

Columns and labels:
BSA = molecular target: T1, BSA (Bos taurus, UniProt P02769); assay: Far-UV CD secondary structure of BSA (CONTIN-LL deconvolution); assay type: physicochemical, bovine; set-up: Regular Alpha Helix / Distorted Alpha Helix / Regular Beta Sheet / Distorted Beta Sheet / Turns / Unordered: unit not given here; settings: 1.0 mg/mL BSA, 25 °C
T1 construct: purchased Millipore Sigma-Aldrich
From the text: Circular dichroism (CD) is widely used to study the secondary structures of proteins, peptides and nucleic acids, because it requires a low concentration sample, is a nondestructive method, allows studying a wide range of variables (temperature, pH, etc.), and provides information on the effect of added ligands on protein folding and interactions. Far-UV (190–260 nm) CD spectroscopy was used to assess the IFN- α 2b and BSA secondary structure since the spectra are characteristic of different structural elements.
Circular dichroism (CD) spectra were collected in a 10 mm quartz cuvette and a Chirascan spectropolarimeter (Applied Photophysics, UK) at room temperature. All CD spectra were recorded in the far-UV range of 190 to 260 nm at scan rates of 50 nm/min, with 4 accumulations, and a response time of 3 s; CD spectra were collected. For each CD experiment, two distinct duplicates were acquired and combined. BSA was fixed at 1 mg/mL, solvent concentrations ranging from 0.1 to 200 mM were used, and the spectra were translated to MRE after being expressed in terms of molar ellipticity. Spectral deconvolution was carried out with DichroWeb using the CONTIN-LL deconvolution algorithm with the SMP180 reference set.

FITC-BSA = molecular target: T2, FITC-BSA (Bos taurus, UniProt P02769); assay: MST binding to FITC-BSA; set-up: species or system bovine; settings: 0.41 μM BSA
T2 construct: purchased Millipore Sigma-Aldrich
Protocol: Herein, a commercial FITC labeling kit (Section 3) was used to fluorescently tag both IFN- α 2b and BSA. Typically, in the labeling process, one amine per protein is labeled, statistically distributing the position of the dye. […] The MST assay was performed as detailed in Section 3. The solutions were prepared with a concentration of IFN- α 2b and BSA fixed at 0.41 μ M in water. For IFN- α 2b a concentration of 2.7 μ M was also prepared to compare it with previous results on MST-binding between FILs and IFN- α 2b fluorescently labeled with a different tag. In each run of MST, a maximum concentration of a ligand is selected and consecutively diluted in sixteen capillaries. […] The experimental conditions of the MST assay only allow the study of the aggregation phenomenon individually for the first CAC.
Microscale thermophoresis (MST) measurements of the dye-labeled protein were used to conduct binding investigations. […] MST tests were conducted in a monolith NT.115 (blue/red) in accordance with the NanoTemper Technologies methodology. Medium MST power and 20% LED power (nano-blue) were set as the instrument’s default settings. For every MST measurement, a PBS buffer was used. The concentration of FITC-BSA was fixed at 0.4 μ M and FITC-IFN- α 2b was tested under two different concentrations (of 0.4 and 2.7 μ M). The ligand was used to create a set of 16 1:1 dilutions, with the starting ligand concentrations ranging from 10 to 400 mM. The typical parameters for MST traces were used for recording: […], 30 s MST power on, and 5 s MST power off. The data from three independently conducted pipetted experiments were examined using NanoTemper Technologies’ MO.Affinity Analysis software, version 2.3.

[1] = max. conc. first capillary below 1st CAC (monomer)

T1 sequence (P02769 25-607): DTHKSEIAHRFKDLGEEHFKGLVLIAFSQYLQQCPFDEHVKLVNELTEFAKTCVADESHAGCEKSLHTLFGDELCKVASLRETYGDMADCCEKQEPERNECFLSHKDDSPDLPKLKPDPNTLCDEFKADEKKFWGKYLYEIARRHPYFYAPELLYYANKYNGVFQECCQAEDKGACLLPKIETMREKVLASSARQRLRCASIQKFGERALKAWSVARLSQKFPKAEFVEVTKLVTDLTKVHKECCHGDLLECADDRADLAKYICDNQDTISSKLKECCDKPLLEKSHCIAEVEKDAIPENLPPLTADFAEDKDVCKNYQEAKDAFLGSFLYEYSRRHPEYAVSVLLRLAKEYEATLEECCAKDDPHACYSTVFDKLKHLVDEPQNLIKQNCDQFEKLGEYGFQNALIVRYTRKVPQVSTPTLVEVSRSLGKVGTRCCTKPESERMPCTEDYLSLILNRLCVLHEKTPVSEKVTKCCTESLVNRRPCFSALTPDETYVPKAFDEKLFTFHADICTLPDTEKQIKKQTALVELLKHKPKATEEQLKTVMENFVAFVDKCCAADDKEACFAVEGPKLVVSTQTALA
T2 sequence (P02769 25-607): as above

CCn1cc[n+](C)c1.O=S(=O)([O-])C(F)(F)C(F)(F)C(F)(F)C(F)(F)F [1-ethyl-3-methylimidazolium perfluorobutane sulfonate]
Distorted Alpha Helix (BSA; 0.1 mM component): 0.206 | Distorted Beta Sheet (BSA; 0.1 mM component): 0.029 | Regular Alpha Helix (BSA; 0.1 mM component): 0.407 | Regular Beta Sheet (BSA; 0.1 mM component): 0.000 | Turns (BSA; 0.1 mM component): 0.142 | Unordered (BSA; 0.1 mM component): 0.216 | Distorted Alpha Helix (BSA; 1 mM component): 0.210 | Distorted Beta Sheet (BSA; 1 mM component): 0.025 | Regular Alpha Helix (BSA; 1 mM component): 0.401 | Regular Beta Sheet (BSA; 1 mM component): 0.000 | Turns (BSA; 1 mM component): 0.137 | Unordered (BSA; 1 mM component): 0.226 | Distorted Alpha Helix (BSA; 5 mM component): 0.207 | Distorted Beta Sheet (BSA; 5 mM component): 0.027 | Regular Alpha Helix (BSA; 5 mM component): 0.406 | Regular Beta Sheet (BSA; 5 mM component): 0.007 | Turns (BSA; 5 mM component): 0.138 | Unordered (BSA; 5 mM component): 0.215 | Distorted Alpha Helix (BSA; 25 mM component): 0.197 | Distorted Beta Sheet (BSA; 25 mM component): 0.035 | Regular Alpha Helix (BSA; 25 mM component): 0.384 | Regular Beta Sheet (BSA; 25 mM component): 0.023 | Turns (BSA; 25 mM component): 0.149 | Unordered (BSA; 25 mM component): 0.212 | Distorted Alpha Helix (BSA; 55 mM component): 0.210 | Distorted Beta Sheet (BSA; 55 mM component): 0.026 | Regular Alpha Helix (BSA; 55 mM component): 0.402 | Regular Beta Sheet (BSA; 55 mM component): 0.000 | Turns (BSA; 55 mM component): 0.140 | Unordered (BSA; 55 mM component): 0.223 | Distorted Alpha Helix (BSA; 90 mM component): 0.207 | Distorted Beta Sheet (BSA; 90 mM component): 0.026 | Regular Alpha Helix (BSA; 90 mM component): 0.382 | Regular Beta Sheet (BSA; 90 mM component): 0.004 | Turns (BSA; 90 mM component): 0.142 | Unordered (BSA; 90 mM component): 0.239 | Distorted Alpha Helix (BSA; 120 mM component): 0.206 | Distorted Beta Sheet (BSA; 120 mM component): 0.032 | Regular Alpha Helix (BSA; 120 mM component): 0.405 | Regular Beta Sheet (BSA; 120 mM component): 0.014 | Turns (BSA; 120 mM component): 0.147 | Unordered (BSA; 120 mM component): 0.196 | Distorted Alpha Helix (BSA; 200 mM component): 0.183 | Distorted Beta Sheet (BSA; 200 mM component): 0.025 | Regular Alpha Helix (BSA; 200 mM component): 0.316 | Regular Beta Sheet (BSA; 200 mM component): 0.014 | Turns (BSA; 200 mM component): 0.108 | Unordered (BSA; 200 mM component): 0.354 | Kd (FITC-BSA; [1]): no binding detected | Kd (FITC-BSA; max. conc. first capillary in 1st CAC range, read-out: Kd): 1610 ± 390 µM | Kd (FITC-BSA; max. conc. first capillary in 2nd CAC range, read-out: Kd): 1730 ± 420 µM | Kd (FITC-BSA; max. conc. first capillary in 3rd CAC range, read-out: Kd): 2860 ± 1460 µM | Kd (FITC-BSA; max. conc. first capillary in 4th CAC range): no binding detected

CCCCn1cc[n+](C)c1.O=S(=O)([O-])C(F)(F)F [[C4C1Im][CF3SO3], 1-butyl-3-methylimidazolium trifluoromethanesulfonate]
Distorted Alpha Helix (BSA; 0.1 mM component): 0.207 | Distorted Beta Sheet (BSA; 0.1 mM component): 0.028 | Regular Alpha Helix (BSA; 0.1 mM component): 0.403 | Regular Beta Sheet (BSA; 0.1 mM component): 0.008 | Turns (BSA; 0.1 mM component): 0.141 | Unordered (BSA; 0.1 mM component): 0.212 | Distorted Alpha Helix (BSA; 1 mM component): 0.215 | Distorted Beta Sheet (BSA; 1 mM component): 0.023 | Regular Alpha Helix (BSA; 1 mM component): 0.419 | Regular Beta Sheet (BSA; 1 mM component): 0.000 | Turns (BSA; 1 mM component): 0.135 | Unordered (BSA; 1 mM component): 0.208 | Distorted Alpha Helix (BSA; 5 mM component): 0.209 | Distorted Beta Sheet (BSA; 5 mM component): 0.025 | Regular Alpha Helix (BSA; 5 mM component): 0.403 | Regular Beta Sheet (BSA; 5 mM component): 0.000 | Turns (BSA; 5 mM component): 0.136 | Unordered (BSA; 5 mM component): 0.227 | Distorted Alpha Helix (BSA; 25 mM component): 0.180 | Distorted Beta Sheet (BSA; 25 mM component): 0.031 | Regular Alpha Helix (BSA; 25 mM component): 0.297 | Regular Beta Sheet (BSA; 25 mM component): 0.020 | Turns (BSA; 25 mM component): 0.128 | Unordered (BSA; 25 mM component): 0.344 | Distorted Alpha Helix (BSA; 55 mM component): 0.217 | Distorted Beta Sheet (BSA; 55 mM component): 0.021 | Regular Alpha Helix (BSA; 55 mM component): 0.390 | Regular Beta Sheet (BSA; 55 mM component): 0.000 | Turns (BSA; 55 mM component): 0.131 | Unordered (BSA; 55 mM component): 0.240 | Distorted Alpha Helix (BSA; 90 mM component): 0.202 | Distorted Beta Sheet (BSA; 90 mM component): 0.026 | Regular Alpha Helix (BSA; 90 mM component): 0.382 | Regular Beta Sheet (BSA; 90 mM component): 0.007 | Turns (BSA; 90 mM component): 0.136 | Unordered (BSA; 90 mM component): 0.247 | Distorted Alpha Helix (BSA; 120 mM component): 0.212 | Distorted Beta Sheet (BSA; 120 mM component): 0.019 | Regular Alpha Helix (BSA; 120 mM component): 0.378 | Regular Beta Sheet (BSA; 120 mM component): 0.000 | Turns (BSA; 120 mM component): 0.126 | Unordered (BSA; 120 mM component): 0.266 | Distorted Alpha Helix (BSA; 200 mM component): 0.223 | Distorted Beta Sheet (BSA; 200 mM component): 0.024 | Regular Alpha Helix (BSA; 200 mM component): 0.411 | Regular Beta Sheet (BSA; 200 mM component): 0.000 | Turns (BSA; 200 mM component): 0.136 | Unordered (BSA; 200 mM component): 0.206 | Kd (FITC-BSA; max. conc. first capillary 12.5 mM (monomer)): no binding detected | Kd (FITC-BSA; max. conc. first capillary 400 mM (monomer)): no binding detected

C[N+](C)(C)CCO.O=S(=O)([O-])C(F)(F)C(F)(F)C(F)(F)C(F)(F)F [[N1112(OH)][C4F9SO3], (2-hydroxyethyl)trimethylammonium perfluorobutane sulfonate]
Distorted Alpha Helix (BSA; 0.1 mM component): 0.214 | Distorted Beta Sheet (BSA; 0.1 mM component): 0.025 | Regular Alpha Helix (BSA; 0.1 mM component): 0.418 | Regular Beta Sheet (BSA; 0.1 mM component): 0.000 | Turns (BSA; 0.1 mM component): 0.138 | Unordered (BSA; 0.1 mM component): 0.205 | Distorted Alpha Helix (BSA; 1 mM component): 0.225 | Distorted Beta Sheet (BSA; 1 mM component): 0.024 | Regular Alpha Helix (BSA; 1 mM component): 0.428 | Regular Beta Sheet (BSA; 1 mM component): 0.000 | Turns (BSA; 1 mM component): 0.138 | Unordered (BSA; 1 mM component): 0.185 | Distorted Alpha Helix (BSA; 5 mM component): 0.222 | Distorted Beta Sheet (BSA; 5 mM component): 0.025 | Regular Alpha Helix (BSA; 5 mM component): 0.423 | Regular Beta Sheet (BSA; 5 mM component): 0.000 | Turns (BSA; 5 mM component): 0.139 | Unordered (BSA; 5 mM component): 0.192 | Distorted Alpha Helix (BSA; 25 mM component): 0.215 | Distorted Beta Sheet (BSA; 25 mM component): 0.025 | Regular Alpha Helix (BSA; 25 mM component): 0.406 | Regular Beta Sheet (BSA; 25 mM component): 0.000 | Turns (BSA; 25 mM component): 0.140 | Unordered (BSA; 25 mM component): 0.214 | Distorted Alpha Helix (BSA; 55 mM component): 0.208 | Distorted Beta Sheet (BSA; 55 mM component): 0.027 | Regular Alpha Helix (BSA; 55 mM component): 0.392 | Regular Beta Sheet (BSA; 55 mM component): 0.000 | Turns (BSA; 55 mM component): 0.144 | Unordered (BSA; 55 mM component): 0.228 | Distorted Alpha Helix (BSA; 90 mM component): 0.199 | Distorted Beta Sheet (BSA; 90 mM component): 0.036 | Regular Alpha Helix (BSA; 90 mM component): 0.376 | Regular Beta Sheet (BSA; 90 mM component): 0.022 | Turns (BSA; 90 mM component): 0.152 | Unordered (BSA; 90 mM component): 0.215 | Distorted Alpha Helix (BSA; 120 mM component): 0.205 | Distorted Beta Sheet (BSA; 120 mM component): 0.032 | Regular Alpha Helix (BSA; 120 mM component): 0.400 | Regular Beta Sheet (BSA; 120 mM component): 0.012 | Turns (BSA; 120 mM component): 0.147 | Unordered (BSA; 120 mM component): 0.203 | Distorted Alpha Helix (BSA; 200 mM component): 0.207 | Distorted Beta Sheet (BSA; 200 mM component): 0.032 | Regular Alpha Helix (BSA; 200 mM component): 0.406 | Regular Beta Sheet (BSA; 200 mM component): 0.017 | Turns (BSA; 200 mM component): 0.147 | Unordered (BSA; 200 mM component): 0.191 | Kd (FITC-BSA; [1]): no binding detected | Kd (FITC-BSA; max. conc. first capillary in 3rd CAC range): no binding detected
